# Experimental data reported in patent publication US8802597B2, “Herbicidal pyrimidines” (E I du Pont de Nemours and Company, priority 2003, dated 2014).
# Read-outs that look alike come from different tables or passages of the source.
# Tests used:
# Format in all cases: in vivo
# [1] = tested on: redroot pigweed (Amaranthus retroflexus); experiment: Test A pre/postemergence; settings: Amaranthus retroflexus, 240 h, read-out: Plant response rating, Pigweed; for pest or weed control at 500 g/ha: 500 g ai/ha; for pest or weed control at 2000 g/ha: 2000 g ai/ha
# Method in brief: (§1)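 Compared with untreated controls, treated plants were visually rated for injury on a 0 (none) to 100 (complete control) scale about ten days after spraying. Pre- and postemergence applications used one solvent/surfactant formulation; postemergence plants measured 2–10 cm.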
# [2] = tested on: velvetleaf (Abutilon theophrasti); experiment: Test A pre/postemergence; settings: Abutilon theophrasti, 240 h, read-out: Plant response rating, Velvetleaf; for pest or weed control at 500 g/ha: 500 g ai/ha; for pest or weed control at 2000 g/ha: 2000 g ai/ha
# Method in brief: as §1
# [3] = tested on: giant foxtail (Setaria faberi); experiment: Test A pre/postemergence; settings: Setaria faberi, 240 h, read-out: Plant response rating, Foxtail, Giant; for pest or weed control at 500 g/ha: 500 g ai/ha; for pest or weed control at 2000 g/ha: 2000 g ai/ha
# Method in brief: as §1
# [4] = tested on: barnyardgrass (Echinochloa crus-galli); experiment: Test A pre/postemergence; settings: Echinochloa crus-galli, 240 h, read-out: Plant response rating, Barnyardgrass; for pest or weed control at 500 g/ha: 500 g ai/ha; for pest or weed control at 2000 g/ha: 2000 g ai/ha
# Method in brief: as §1
# [5] = tested on: morningglory (Ipomoea spp.); experiment: Test A pre/postemergence; settings: Ipomoea, 240 h, read-out: Plant response rating, Morningglory; for pest or weed control at 500 g/ha: 500 g ai/ha; for pest or weed control at 2000 g/ha: 2000 g ai/ha
# Method in brief: as §1
# [6] = tested on: crabgrass (Digitaria sanguinalis); experiment: Test A pre/postemergence; settings: Digitaria sanguinalis, 240 h, read-out: Plant response rating, Crabgrass; for pest or weed control at 500 g/ha: 500 g ai/ha; for pest or weed control at 2000 g/ha: 2000 g ai/ha
# Method in brief: as §1
# [7] = tested on: chickweed (Stellaria media); experiment: Test C postemergence; settings: Stellaria media, post-emergence
# Method in brief: (§2)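 Percent control is a visual rating (0 none, 100 complete) taken against untreated plants after 12 to 14 days of greenhouse growth. Applications were made preemergence to seeded pots and postemergence to plants at the 1- to 4-leaf stage, in a non-phytotoxic surfactant-containing solvent.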
# [8] = tested on: giant foxtail (Setaria faberii); experiment: Test C pre/postemergence; settings: Setaria faberi; for pest or weed control at 125 g/ha: 125 g ai/ha; for pest or weed control at 500 g/ha: 500 g ai/ha; for pest or weed control at 62 g/ha: 62 g ai/ha; for pest or weed control at 250 g/ha: 250 g ai/ha
# Method in brief: as §2
# [9] = tested on: crabgrass (Digitaria sanguinalis); experiment: Test C pre/postemergence; settings: Digitaria sanguinalis; for pest or weed control at 62 g/ha: 62 g ai/ha; for pest or weed control at 125 g/ha: 125 g ai/ha; for pest or weed control at 250 g/ha: 250 g ai/ha; for pest or weed control at 500 g/ha: 500 g ai/ha
# Method in brief: as §2
# [10] = tested on: yellow nutsedge (Cyperus esculentus); experiment: Test C pre/postemergence; settings: Cyperus; for pest or weed control at 62 g/ha: 62 g ai/ha; for pest or weed control at 125 g/ha: 125 g ai/ha; for pest or weed control at 250 g/ha: 250 g ai/ha; for pest or weed control at 500 g/ha: 500 g ai/ha
# Method in brief: as §2
# [11] = tested on: Surinam grass (Brachiaria decumbens); experiment: Test C pre/postemergence; settings: Urochloa decumbens; for pest or weed control at 125 g/ha: 125 g ai/ha; for pest or weed control at 500 g/ha: 500 g ai/ha; for pest or weed control at 62 g/ha: 62 g ai/ha; for pest or weed control at 250 g/ha: 250 g ai/ha
# Method in brief: as §2
# [12] = post-emergence, Postemergence, 0 to 100 scale (0 no effect, 100 complete control)
# [13] = pre-emergence, Preemergence, 0 to 100 scale where 0 is no effect and 100 is complete control, approximately ten days
# [14] = pre-emergence, Preemergence, 0 to 100 scale (0 no effect, 100 complete control)
# [15] = post-emergence, Postemergence, scale 0 to 100 (0 no effect, 100 complete control), read-out: Foxtail, Giant plant response rating
# [16] = post-emergence, Postemergence, scale 0 to 100, read-out: Plant response rating, Foxtail, Giant
# [17] = pre-emergence, Preemergence, scale 0 to 100, read-out: Plant response rating, Foxtail, Giant
# [18] = post-emergence, Postemergence, scale 0 to 100 (0 no effect, 100 complete control), read-out: Crabgrass plant response rating
# [19] = post-emergence, Postemergence, scale 0 to 100, read-out: Plant response rating, Crabgrass
# [20] = pre-emergence, Preemergence, scale 0 to 100, read-out: Plant response rating, Crabgrass
# [21] = post-emergence, Postemergence, scale 0 to 100 (0 no effect, 100 complete control), read-out: Nutsedge, Yellow plant response rating
# [22] = post-emergence, Postemergence, scale 0 to 100, read-out: Plant response rating, Nutsedge, Yellow
# [23] = pre-emergence, Preemergence, scale 0 to 100, read-out: Plant response rating, Nutsedge, Yellow
# [24] = post-emergence, Postemergence, scale 0 to 100 (0 no effect, 100 complete control), read-out: Surinam Grass plant response rating
# [25] = post-emergence, Postemergence, scale 0 to 100, read-out: Plant response rating, Surinam Grass
# [26] = pre-emergence, Preemergence, scale 0 to 100, read-out: Plant response rating, Surinam Grass
smiles,measurement,setting,value
"CCOC(=O)c1nc(C2CC2)nc(N)c1Br [Compound 1, ethyl 6-amino-5-bromo-2-cyclopropyl-4-pyrimidinecarboxylate]",pest or weed control at 500 g/ha,[1]; [12],100%
same,pest or weed control at 2000 g/ha,[1]; [12],100%
same,pest or weed control at 500 g/ha,[1]; [13],85%
same,pest or weed control at 2000 g/ha,[1]; [14],100%
same,pest or weed control at 500 g/ha,[2]; [12],95%
same,pest or weed control at 2000 g/ha,[2]; [12],85%
same,pest or weed control at 500 g/ha,[2]; [13],60%
same,pest or weed control at 2000 g/ha,[2]; [14],80%
same,pest or weed control at 500 g/ha,[3]; [12],70%
same,pest or weed control at 2000 g/ha,[3]; [12],75%
same,pest or weed control at 500 g/ha,[3]; [13],40%
same,pest or weed control at 2000 g/ha,[3]; [14],85%
same,pest or weed control at 500 g/ha,[4]; [12],75%
same,pest or weed control at 2000 g/ha,[4]; [12],75%
same,pest or weed control at 500 g/ha,[4]; [13],60%
same,pest or weed control at 2000 g/ha,[4]; [14],80%
same,pest or weed control at 500 g/ha,[5]; [12],95%
same,pest or weed control at 2000 g/ha,[5]; [12],100%
same,pest or weed control at 500 g/ha,[5]; [13],85%
same,pest or weed control at 2000 g/ha,[5]; [14],100%
same,pest or weed control at 500 g/ha,[6]; [12],65%
same,pest or weed control at 2000 g/ha,[6]; [12],80%
same,pest or weed control at 500 g/ha,[6]; [13],25%
same,pest or weed control at 2000 g/ha,[6]; [14],75%
same,pest or weed control at 62 g/ha,"[7]; 62 g ai/ha, scale 0 to 100 (0 no effect, 100 complete control), read-out: Chickweed plant response rating",80%
same,pest or weed control at 250 g/ha,"[7]; 250 g ai/ha, scale 0 to 100, read-out: Plant response rating, Chickweed",90%
same,pest or weed control at 125 g/ha,[8]; [15],65%
same,pest or weed control at 500 g/ha,[8]; [16],90%
same,pest or weed control at 62 g/ha,[8]; [15],40%
same,pest or weed control at 250 g/ha,[8]; [16],80%
same,pest or weed control at 62 g/ha,"[8]; pre-emergence, Preemergence, scale 0 to 100, 0 no effect, 100 complete control, read-out: Plant response rating, Foxtail, Giant",0%
same,pest or weed control at 125 g/ha,[8]; [17],30%
same,pest or weed control at 250 g/ha,[8]; [17],90%
same,pest or weed control at 500 g/ha,[8]; [17],90%
same,pest or weed control at 62 g/ha,[9]; [18],30%
same,pest or weed control at 125 g/ha,[9]; [18],85%
same,pest or weed control at 250 g/ha,[9]; [19],85%
same,pest or weed control at 500 g/ha,[9]; [19],90%
same,pest or weed control at 62 g/ha,"[9]; pre-emergence, Preemergence, scale 0 to 100, 0 no effect, 100 complete control, read-out: Plant response rating, Crabgrass",10%
same,pest or weed control at 125 g/ha,[9]; [20],60%
same,pest or weed control at 250 g/ha,[9]; [20],90%
same,pest or weed control at 500 g/ha,[9]; [20],95%
same,pest or weed control at 62 g/ha,[10]; [21],0%
same,pest or weed control at 125 g/ha,[10]; [21],0%
same,pest or weed control at 250 g/ha,[10]; [22],5%
same,pest or weed control at 500 g/ha,[10]; [22],5%
same,pest or weed control at 62 g/ha,"[10]; pre-emergence, Preemergence, scale 0 to 100, 0 no effect, 100 complete control, read-out: Plant response rating, Nutsedge, Yellow",0%
same,pest or weed control at 125 g/ha,[10]; [23],0%
same,pest or weed control at 250 g/ha,[10]; [23],50%
same,pest or weed control at 500 g/ha,[10]; [23],50%
same,pest or weed control at 125 g/ha,[11]; [24],90%
same,pest or weed control at 500 g/ha,[11]; [25],95%
same,pest or weed control at 62 g/ha,[11]; [24],90%
same,pest or weed control at 250 g/ha,[11]; [25],90%
same,pest or weed control at 62 g/ha,"[11]; pre-emergence, Preemergence, scale 0 to 100, 0 no effect, 100 complete control, read-out: Plant response rating, Surinam Grass",0%
same,pest or weed control at 125 g/ha,[11]; [26],35%
same,pest or weed control at 250 g/ha,[11]; [26],90%
same,pest or weed control at 500 g/ha,[11]; [26],90%
